Assay results: PubChem BioAssay (NCI)
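Step 1: Grow cells in 96-well plates. Step 2: Expose to compound for 48 hours at 5 concentrations. Step 3: Interpolate endpoints linearly; if unreached, use highest concentration. GI50 is the concentration that inhibits growth by half. TGI marks complete inhibition of growth.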

Experiments:
Assay in all cases: inhibition of tumour cell growth, NCI panel, 48 h
RXF 393 renal = tested on: RXF 393 renal
HCC-2998 colon = tested on: HCC-2998 colon
OVCAR-4 ovarian = tested on: OVCAR-4 ovarian
M14 melanoma = tested on: M14 melanoma
SN12C renal = tested on: SN12C renal
NCI-H23 lung = tested on: NCI-H23 lung

Row | SMILES | GI50 (RXF 393 renal) [µM] | TGI (RXF 393 renal) [µM] | GI50 (HCC-2998 colon) [µM] | TGI (HCC-2998 colon) [µM] | GI50 (OVCAR-4 ovarian) [µM] | TGI (OVCAR-4 ovarian) [µM] | GI50 (M14 melanoma) [µM] | TGI (M14 melanoma) [µM] | GI50 (SN12C renal) [µM] | TGI (SN12C renal) [µM] | GI50 (NCI-H23 lung) [µM] | TGI (NCI-H23 lung) [µM]
1 | COc1ccc(OC)c2c1[nH]c(=O)c1c3ncccc3cn21 | 1.38 | 4.47 | 4.44 | > 100 | 3.56 | 17.2 | 4.49 | > 100 | 4.48 | > 100 | 3.58 | > 100
2 | Cc1cn2c(/C=N/N=C(N)N)c(-c3cccs3)nc2s1 | 10.2 | 46.2 | 1.77 | 3.24 | – | – | 1.63 | 3.01 | 0.161 | 3.08 | 11.7 | 24
3 | COc1cc(Nc2nc3ccccc3cc2C(=O)Nc2ccc(F)c(F)c2)cc(OC)c1OC | 2.73 | 7.98 | 4.19 | > 100 | 2.8 | 8.56 | 2.74 | – | 3.43 | > 100 | 2.84 | 8.51
4 | COc1ccc(OC)c(-c2cc(-c3ccc(Cl)cc3)nn2-c2ccc(S(=O)(=O)NC(C)=O)cc2)c1 | 23.1 | > 100 | 1.71 | 6.93 | – | – | 3.04 | 8.21 | 3.02 | 10.9 | 11.3 | 25.6
5 | SCCSCCCSCCS | – | – | – | > 100 | – | 98.2 | – | > 100 | – | > 100 | – | > 100
6 | CC(C)(C)[Si](C)(C)OC1[C@@H](O[Si](C)(C)C(C)(C)C)[C@@H](CNC(=O)NC(=O)CCl)O[C@H]1n1cnc2c(NC(=O)Nc3ccccc3)ncnc21 (stereo not given in full) | 0.614 | 1.27 | 0.967 | 2.06 | 0.7 | 1.57 | 0.978 | 1.98 | 0.786 | 1.69 | 0.756 | 1.84
7 | COc1ccc(C(=O)c2cc3c(N)c(C(=O)Nc4ccc(C)cc4)sc3nc2C)cc1 | 2.48 | 9.38 | 4.01 | > 100 | 5.55 | > 100 | 1.99 | 62.9 | 6.93 | > 100 | 6.24 | 44
8 | COc1cc(CNc2ccccc2C(=O)N2CCN(C(=O)c3cc(-c4cc(OC)c(OC)c(OC)c4)n4nc(-c5ccccc5)cc4n3)CC2)cc(OC)c1OC | 2.32 | 7.54 | 5.8 | > 100 | 4.37 | > 100 | 4.05 | > 100 | 17 | > 100 | 4.96 | > 100
9 | O=C1/C(=C\c2ccccn2)c2ccccc2N1c1c(Cl)cccc1Cl | 1.4 | 2.73 | 1.86 | 3.3 | 3.14 | 26.8 | 1.78 | 3.72 | 2.65 | 12.5 | 3.29 | 15.3
10 | O=Cc1ccc(-c2ccc(-c3nc4ccccc4o3)cc2)o1 | 22.6 | 54.5 | 28.6 | 76.4 | > 100 | > 100 | 44.1 | > 100 | – | – | 31.8 | > 100
11 | O=c1c(Cl)c(Cl)c(=O)c2sc3cc(Cl)ccc3[nH]c1=2 | – | > 100 | – | – | – | 22 | – | > 100 | – | – | – | > 100
12 | CCC(CNc1cc(OC)cc2cccnc12)NC1CCCCC1 (stereo not given) | 71.2 | > 100 | 19.3 | 41.4 | 6.2 | > 100 | 17.1 | 33.5 | > 100 | > 100 | 51.3 | > 100
13 | C=C(Nc1ccc([N+](=O)[O-])cc1[N+](=O)[O-])c1c/c(=N\NC(N)=S)c2ccccc2o1 | – | > 100 | – | > 100 | – | > 100 | – | > 100 | – | > 100 | – | > 100
14 | COc1ccc(C2SCC(=O)N2NC(=O)c2ccc(NC(C)=O)cc2)cc1 (stereo not given) | – | > 100 | – | > 100 | – | > 100 | – | > 100 | – | > 100 | – | > 100
15 | Cc1nc(N2CCC3(CC2)CO[C@@H](C)[C@H]3N)c(CO)nc1Sc1ccnc(N)c1Cl | 2.53 | > 30.6 | > 100 | > 100 | 22.4 | > 100 | > 100 | > 100 | 12.2 | > 100 | 0.329 | > 100
16 | Cc1cc(C)c(Cn2cnc3c(Cl)ncnc32)c(C)c1CCl | > 100 | > 100 | 19 | 46.7 | – | – | 99.4 | > 100 | > 100 | > 100 | 90.7 | > 100
17 | COc1cccc(NC(=O)c2sc3nc4c(cc3c2N)C(=O)CCC4)c1 | 0.084 | 1.51 | 0.279 | > 100 | – | – | 0.0943 | > 100 | 0.461 | > 100 | 0.346 | > 100

Row | SMILES | GI50 (RXF 393 renal) [µM] | TGI (RXF 393 renal) [µM] | GI50 (HCC-2998 colon) [µM] | TGI (HCC-2998 colon) [µM] | GI50 (OVCAR-4 ovarian) [µM] | TGI (OVCAR-4 ovarian) [µM] | GI50 (M14 melanoma) [µM] | TGI (M14 melanoma) [µM] | GI50 (SN12C renal) [µM] | TGI (SN12C renal) [µM] | GI50 (NCI-H23 lung) [µM] | TGI (NCI-H23 lung) [µM]
18 | CCCCCCCCCCCCCCCCCC(=O)OCC(COC(=O)CCCN)OC(=O)CCCN (stereo not given) | – | 32.5 | – | 35.9 | – | 40.9 | – | 31.4 | – | 31.6 | – | 31.9
19 | NC(=O)c1cccc(Nc2nccc(Nc3cccc4[nH]ncc34)n2)c1 | 4.43 | 16.3 | 14.7 | > 25 | 13.2 | > 25 | 9.59 | > 25 | 8.74 | > 25 | 17.1 | > 25
20 | CN1C(=O)N[C@H]2[C@@H]3NC(=O)c4ccc(Br)n4[C@@H]3C[C@]21O | 0.0565 | 0.486 | 0.13 | 1.75 | 0.093 | 1.56 | 0.0454 | 0.236 | 0.106 | 2.19 | 0.0968 | 1.42
21 | COc1ccc(/C=N\Nc2ccc([N+](=O)[O-])cn2)cc1OC | 3.65 | 16.7 | > 100 | > 100 | – | – | > 100 | > 100 | > 100 | > 100 | 53.2 | > 100
22 | CC(=O)On1c(-c2ccccc2-c2nc3ccccc3n2OC(C)=O)nc2ccccc21 | – | – | – | > 100 | – | – | – | > 100 | – | > 100 | – | 76.6
23 | Cc1ccc(S(=O)(=O)NNC(=O)c2cc(C)c(C)cc2N)cc1 | – | > 100 | – | > 100 | – | > 100 | – | – | – | > 100 | – | > 100
24 | COc1ccc2nc3cc([N+](=O)[O-])ccc3c(NCCCN(C)C)c2c1 | – | – | – | – | 0.0959 | 0.539 | 0.176 | 0.412 | 0.111 | 0.768 | 0.17 | 0.737
25 | N#CCN/C=C\C(=O)c1ccc(Cl)cc1 | 40.8 | > 100 | – | – | 76.9 | > 100 | 20.3 | > 100 | 39.3 | > 100 | 32.9 | 86.2
26 | CCN(CC)CCCNC(=O)c1c2c(n3ccccc13)C(=O)c1ncccc1C2=O | 1.16 | 3.13 | 0.388 | 1.65 | 0.164 | 0.903 | 0.764 | 2.25 | – | – | 0.252 | 1.99
27 | CC1(CCC(=O)OC2CCCCC2)OCCO1 | – | > 100 | – | – | – | > 100 | – | > 100 | – | > 100 | – | > 100
28 | CNC(=O)Cc1nc(-c2cccc(NS(=O)(=O)c3c(F)cccc3F)c2F)c(-c2ccnc(Nc3ccccc3)n2)s1 | 0.181 | 2.84 | 7.94 | 28.1 | > 33.8 | > 50 | 0.0108 | 6.58 | 1.71 | > 50 | 4.42 | > 50
29 | O=C(/C=C/c1ccccc1)n1c(-c2ccc(Cl)cc2)nc2ccccc21 | 1.32 | 3.12 | 1.8 | 3.45 | 3.01 | 16.7 | 1.91 | 5.05 | 1.39 | 2.76 | 1.91 | 4.89
30 | COc1ccc2c(c1)CC[C@H](O)/C2=C/c1cc(OC)c(OC)c(OC)c1 | – | – | 0.16 | > 100 | 0.952 | > 100 | 0.101 | > 100 | 0.998 | > 100 | 0.162 | > 100
31 | O=Cc1cccc2c1Oc1c(cccc1C(=O)O)S2 | – | – | – | > 100 | – | > 100 | – | > 100 | – | > 100 | – | > 100
32 | COc1cccc(/C=C/C(=O)c2ccc(Cl)cc2Cl)c1 | 9.44 | 20.5 | – | – | 10.9 | 41 | 10.3 | 22.3 | 8.72 | 16.5 | 9.72 | 28.7
33 | COC(=O)Cc1ccc(Oc2cnc3cc(F)c(F)cc3n2)cc1 | > 100 | > 100 | – | – | 58.3 | > 100 | – | – | > 100 | > 100 | 68.4 | > 100
